Measurements from patent US5516759A, “LHRH antagonists having lactam groups at the N-terminus” (TAP Holdings Inc., priority 1994, dated 1996).
Where a SMILES comes first, the peptide text is derived from it. Side-chain parts run from the residue outwards. [ ]: non-standard residue; d: D form. The star is where a group is joined. d2Nal(N,N-C(O)(CH2)4) = O=C1CCCCN1[C@H](Cc1ccc2ccccc2c1)C(=O)*; d2Nal(N,N-(CH2)3CO) = O=C1CCCN1[C@H](Cc1ccc2ccccc2c1)C(=O)*; Shikimoyl = O=C(C1=C[C@@H](O)[C@@H](O)[C@H](O)C1)*; Acetyl(2-oxopyrrolidin-1-yl) = O=C1CCCN1CC(=O)*; dPhe(4-Cl) = N[C@H](Cc1ccc(Cl)cc1)C(=O)O; d1Nal = N[C@H](Cc1cccc2ccccc12)C(=O)O; d(hCit) = NC(=O)NCCCC[C@@H](N)C(=O)O; Lys(iPr) = CC(C)NCCCC[C@H](N)C(=O)O; NMeY = CN[C@@H](Cc1ccc(O)cc1)C(=O)O; dCit = NC(=O)NCCC[C@@H](N)C(=O)O; hArg = N=C(N)NCCCC[C@H](N)C(=O)O; d3Pal = N[C@H](Cc1cccnc1)C(=O)O; Nicotinoyl = O=C(c1cccnc1)*

Molecular target: T1, LHRH (Rattus norvegicus, UniProt P30969)
T1 construct: endogenous in cells
T1 sequence (P30969 1-327): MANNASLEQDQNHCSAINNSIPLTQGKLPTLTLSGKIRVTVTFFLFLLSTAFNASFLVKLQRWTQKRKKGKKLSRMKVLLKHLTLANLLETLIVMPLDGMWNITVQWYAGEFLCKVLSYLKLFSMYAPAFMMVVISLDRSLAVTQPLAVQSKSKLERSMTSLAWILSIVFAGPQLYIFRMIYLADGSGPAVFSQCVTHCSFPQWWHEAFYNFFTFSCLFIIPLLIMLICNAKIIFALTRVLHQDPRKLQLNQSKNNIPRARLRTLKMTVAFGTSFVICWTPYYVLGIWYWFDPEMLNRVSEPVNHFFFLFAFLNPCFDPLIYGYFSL
Experiment: in vitro test for LHRH antagonist potency (pA2)
Type: cell-based
Settings: negative logarithm of the antagonist concentration required to shift the response curve produced by the agonist leuprolide to two-fold higher concentration
Experimental: Representative compounds of the present invention were evaluated in an in vitro test for LHRH antagonist potency (pA2). The test employed the method detailed in F. Haviv, et al. J. Med. Chem., 32:2340-2344 (1989). The values of pA2 are the negative logarithms of the concentration of the particular antagonist test compound required to shift the response curve produced by the agonist leuprolide to two-fold higher concentration. (Leuprolide is disclosed and claimed in U.S. Pat. No. 4,005,063.) Typically pA2 values of 9.5 or greater are indicative of good LHRH antagonist potency, with values of 10.0 or greater being preferred.

Row | SMILES | Kb [nM]
1 | CC(C)C[C@H](NC(=O)[C@@H](CCCCNC(=O)c1cccnc1)NC(=O)[C@H](Cc1ccc(O)cc1)N(C)C(=O)[C@H](CO)NC(=O)[C@@H](Cc1cccnc1)NC(=O)[C@@H](Cc1ccc(Cl)cc1)NC(=O)[C@@H](Cc1ccc2ccccc2c1)N1CCCC1=O)C(=O)N[C@@H](CCCCNC(C)C)C(=O)N1CCC[C@H]1C(=O)N[C@H](C)C(N)=O [Example 7, 5LactD2Nal^1 -D4ClPhe^2 -D3Pal^3 -Ser^4 -NMeTyr^5 -DLys(N-epsilon-Nic)^6 -Leu^7 -Lys(N-epsilon-Isopropyl)^8 -Pro^9 -DAla^10 NH2] ({d2Nal(N,N-(CH2)3CO)}-[dPhe(4-Cl)][d3Pal]S[NMeY][dK](Nicotinoyl)L[Lys(iPr)]P[dA]-NH2) | 0.0372
2 | CC(C)C[C@H](NC(=O)[C@@H](CCCCNC(=O)c1cccnc1)NC(=O)[C@H](Cc1ccc(O)cc1)N(C)C(=O)[C@H](CO)NC(=O)[C@@H](Cc1cccnc1)NC(=O)[C@@H](Cc1ccc(Cl)cc1)NC(=O)[C@@H](Cc1ccc2ccccc2c1)N1CCCCC1=O)C(=O)N[C@@H](CCCCNC(C)C)C(=O)N1CCC[C@H]1C(=O)N[C@H](C)C(N)=O [Example 13, 6LactD2Nal^1 -D4ClPhe^2 -D3Pal^3 -Ser^4 -NMeTyr^5 -DLys(N-epsilon-Nic)^6 -Leu^7 -Lys(N-epsilon-Isopropyl)^8 -Pro^9 -DAla^10 NH2] ({d2Nal(N,N-C(O)(CH2)4)}-[dPhe(4-Cl)][d3Pal]S[NMeY][dK](Nicotinoyl)L[Lys(iPr)]P[dA]-NH2) | 0.0178
3 | CC(C)C[C@H](NC(=O)[C@@H](CCCNC(N)=O)NC(=O)[C@H](Cc1ccc(O)cc1)N(C)C(=O)[C@H](CO)NC(=O)[C@@H](Cc1cccc2ccccc12)NC(=O)[C@@H](Cc1ccc(Cl)cc1)NC(=O)CN1CCCC1=O)C(=O)N[C@@H](CCCNC(=N)N)C(=O)N1CCC[C@H]1C(=O)N[C@H](C)C(N)=O [Example 14, 5LactGly^1 -D4ClPhe^2 -D1Nal^3 -Ser^4 -NMeTyr^5 -DCit^6 -Leu^7 -Arg^8 -Pro^9 -DAla^10 NH2] ({Acetyl(2-oxopyrrolidin-1-yl)}-[dPhe(4-Cl)][d1Nal]S[NMeY][dCit]LRP[dA]-NH2) | 0.0178
4 | CC(C)C[C@H](NC(=O)[C@@H](CCCCNC(=O)CNC(=O)C1=C[C@@H](O)[C@@H](O)[C@H](O)C1)NC(=O)[C@H](Cc1ccc(O)cc1)N(C)C(=O)[C@H](CO)NC(=O)[C@@H](Cc1cccnc1)NC(=O)[C@@H](Cc1ccc(Cl)cc1)NC(=O)[C@@H](Cc1ccc2ccccc2c1)N1CCCCC1=O)C(=O)N[C@@H](CCCCNC(=N)N)C(=O)N1CCC[C@H]1C(=O)N[C@H](C)C(N)=O [Example 11, 6LactD2Nal^1 -D4ClPhe^2 -D3Pal^3 -Ser^4 -NMeTyr^5 -DLys(N-epsilon-Gly-Shik)^6 -Leu^7 -Harg^8 -Pro^9 -DAla^10 NH2] ({d2Nal(N,N-C(O)(CH2)4)}-[dPhe(4-Cl)][d3Pal]S[NMeY][dK]([Gly-Shikimoyl])L[hArg]P[dA]-NH2) | 0.0209
5 | CC(C)C[C@H](NC(=O)[C@@H](CCCCNC(=O)C1=C[C@@H](O)[C@@H](O)[C@H](O)C1)NC(=O)[C@H](Cc1ccc(O)cc1)N(C)C(=O)[C@H](CO)NC(=O)[C@@H](Cc1cccnc1)NC(=O)[C@@H](Cc1ccc(Cl)cc1)NC(=O)[C@@H](Cc1ccc2ccccc2c1)N1CCCC1=O)C(=O)N[C@@H](CCCNC(=N)N)C(=O)N1CCC[C@H]1C(=O)N[C@H](C)C(N)=O [Example 2, 5LactD2Nal^1 -D4ClPhe^2 -D3Pal^3 -Ser^4 -NMeTyr^5 -DLys(N-epsilon-Shik)^6 -Leu^7 -Arg^8 -Pro^9 -DAla^10 NH2] ({d2Nal(N,N-(CH2)3CO)}-[dPhe(4-Cl)][d3Pal]S[NMeY][dK](Shikimoyl)LRP[dA]-NH2) | 0.0263
6 | CC(C)C[C@H](NC(=O)[C@@H](CCCCNC(=O)CNC(=O)C1=C[C@@H](O)[C@@H](O)[C@H](O)C1)NC(=O)[C@H](Cc1ccc(O)cc1)N(C)C(=O)[C@H](CO)NC(=O)[C@@H](Cc1cccnc1)NC(=O)[C@@H](Cc1ccc(Cl)cc1)NC(=O)[C@@H](Cc1ccc2ccccc2c1)N1CCCC1=O)C(=O)N[C@@H](CCCCNC(=N)N)C(=O)N1CCC[C@H]1C(=O)N[C@H](C)C(N)=O [Example 5, 5LactD2Nal^1 -D4ClPhe^2 -D3Pal^3 -Ser^4 -NMeTyr^5 -DLys(N-epsilon-Gly-Shik)^6 -Leu^7 -Harg^8 -Pro^9 -DAla^10 NH2] ({d2Nal(N,N-(CH2)3CO)}-[dPhe(4-Cl)][d3Pal]S[NMeY][dK]([Gly-Shikimoyl])L[hArg]P[dA]-NH2) | 0.00646
7 | CC(C)C[C@H](NC(=O)[C@@H](CCCCNC(=O)C1=C[C@@H](O)[C@@H](O)[C@H](O)C1)NC(=O)[C@H](Cc1ccc(O)cc1)N(C)C(=O)[C@H](CO)NC(=O)[C@@H](Cc1cccnc1)NC(=O)[C@@H](Cc1ccc(Cl)cc1)NC(=O)[C@@H](Cc1ccc2ccccc2c1)N1CCCC1=O)C(=O)N[C@@H](CCCCNC(=N)N)C(=O)N1CCC[C@H]1C(=O)N[C@H](C)C(N)=O [Example 4, 5LactD2Nal^1 -D4ClPhe^2 -D3Pal^3 -Ser^4 -NMeTyr^5 -DLys(N-epsilon-Shik)^6 -Leu^7 -Harg^8 -Pro^9 -DAla^10 NH2] ({d2Nal(N,N-(CH2)3CO)}-[dPhe(4-Cl)][d3Pal]S[NMeY][dK](Shikimoyl)L[hArg]P[dA]-NH2) | 0.00692
8 | CC(C)C[C@H](NC(=O)[C@@H](CCCNC(N)=O)NC(=O)[C@H](Cc1ccc(O)cc1)N(C)C(=O)[C@H](CO)NC(=O)[C@@H](Cc1cccnc1)NC(=O)[C@@H](Cc1ccc(Cl)cc1)NC(=O)[C@@H](Cc1ccc2ccccc2c1)N1CCCC1=O)C(=O)N[C@@H](CCCNC(=N)N)C(=O)N1CCC[C@H]1C(=O)N[C@H](C)C(N)=O [Example 1, 5LactD2Nal^1 -D4ClPhe^2 -D3Pal^3 -Ser^4 -NMeTyr^5 -DCit^6 -Leu^7 -Arg^8 -Pro^9 -DAla^10 NH2] ({d2Nal(N,N-(CH2)3CO)}-[dPhe(4-Cl)][d3Pal]S[NMeY][dCit]LRP[dA]-NH2) | 0.00813
9 | CC(C)C[C@H](NC(=O)[C@@H](CCCCNC(=O)CNC(=O)C1=C[C@@H](O)[C@@H](O)[C@H](O)C1)NC(=O)[C@H](Cc1ccc(O)cc1)N(C)C(=O)[C@H](CO)NC(=O)[C@@H](Cc1cccnc1)NC(=O)[C@@H](Cc1ccc(Cl)cc1)NC(=O)[C@@H](Cc1ccc2ccccc2c1)N1CCCCC1=O)C(=O)N[C@@H](CCCNC(=N)N)C(=O)N1CCC[C@H]1C(=O)N[C@H](C)C(N)=O [Example 9, 6LactD2Nal^1 -D4ClPhe^2 -D3Pal^3 -Ser^4 -NMeTyr^5 -DLys(N-epsilon-Gly-Shik)^6 -Leu^7 -Arg^8 -Pro^9 -DAla^10 NH2] ({d2Nal(N,N-C(O)(CH2)4)}-[dPhe(4-Cl)][d3Pal]S[NMeY][dK]([Gly-Shikimoyl])LRP[dA]-NH2) | 0.0355
10 | CC(C)C[C@H](NC(=O)[C@@H](CCCCNC(=O)CNC(=O)C1=C[C@@H](O)[C@@H](O)[C@H](O)C1)NC(=O)[C@H](Cc1ccc(O)cc1)N(C)C(=O)[C@H](CO)NC(=O)[C@@H](Cc1cccnc1)NC(=O)[C@@H](Cc1ccc(Cl)cc1)NC(=O)[C@@H](Cc1ccc2ccccc2c1)N1CCCC1=O)C(=O)N[C@@H](CCCNC(=N)N)C(=O)N1CCC[C@H]1C(=O)N[C@H](C)C(N)=O [Example 3, 5LactD2Nal^1 -D4ClPhe^2 -D3Pal^3 -Ser^4 -NMeTyr^5 -DLys(N-epsilon-Gly-Shik)^6 -Leu^7 -Arg^8 -Pro^9 -DAla^10 NH2] ({d2Nal(N,N-(CH2)3CO)}-[dPhe(4-Cl)][d3Pal]S[NMeY][dK]([Gly-Shikimoyl])LRP[dA]-NH2) | 0.0209
11 | CC(C)C[C@H](NC(=O)[C@@H](CCCCNC(=O)C1=C[C@@H](O)[C@@H](O)[C@H](O)C1)NC(=O)[C@H](Cc1ccc(O)cc1)N(C)C(=O)[C@H](CO)NC(=O)[C@@H](Cc1cccnc1)NC(=O)[C@@H](Cc1ccc(Cl)cc1)NC(=O)[C@@H](Cc1ccc2ccccc2c1)N1CCCCC1=O)C(=O)N[C@@H](CCCNC(=N)N)C(=O)N1CCC[C@H]1C(=O)N[C@H](C)C(N)=O [Example 8, 6LactD2Nal^1 -D4ClPhe^2 -D3Pal^3 -Ser^4 -NMeTyr^5 -DLys(N-epsilon-Shik)^6 -Leu^7 -Arg^8 -Pro^9 -DAla^10 NH2] ({d2Nal(N,N-C(O)(CH2)4)}-[dPhe(4-Cl)][d3Pal]S[NMeY][dK](Shikimoyl)LRP[dA]-NH2) | 0.0129
12 | CC(C)C[C@H](NC(=O)[C@@H](CCCCNC(=O)C1=C[C@@H](O)[C@@H](O)[C@H](O)C1)NC(=O)[C@H](Cc1ccc(O)cc1)N(C)C(=O)[C@H](CO)NC(=O)[C@@H](Cc1cccnc1)NC(=O)[C@@H](Cc1ccc(Cl)cc1)NC(=O)[C@@H](Cc1ccc2ccccc2c1)N1CCCCC1=O)C(=O)N[C@@H](CCCCNC(=N)N)C(=O)N1CCC[C@H]1C(=O)N[C@H](C)C(N)=O [Example 10, 6LactD2Nal^1 -D4ClPhe^2 -D3Pal^3 -Ser^4 -NMeTyr^5 -DLys(N-epsilon-Shik)^6 -Leu^7 -Harg^8 -Pro^9 -DAla^10 NH2] ({d2Nal(N,N-C(O)(CH2)4)}-[dPhe(4-Cl)][d3Pal]S[NMeY][dK](Shikimoyl)L[hArg]P[dA]-NH2) | 0.0209
13 | CC(C)C[C@H](NC(=O)[C@@H](CCCCNC(N)=O)NC(=O)[C@H](Cc1ccc(O)cc1)NC(=O)[C@H](CO)NC(=O)[C@@H](Cc1cccnc1)NC(=O)[C@@H](Cc1ccc(Cl)cc1)NC(=O)[C@@H](Cc1ccc2ccccc2c1)N1CCCC1=O)C(=O)N[C@@H](CCCCNC(C)C)C(=O)N1CCC[C@H]1C(=O)N[C@H](C)C(N)=O [Example 12, 5LactD2Nal^1 -D4ClPhe^2 -D3Pal^3 -Ser^4 -Tyr^5 -DHcit^6 -Leu^7 -Lys(isp)^8 -Pro^9 -DAla^10NH2] ({d2Nal(N,N-(CH2)3CO)}-[dPhe(4-Cl)][d3Pal]SY[d(hCit)]L[Lys(iPr)]P[dA]-NH2) | 0.0178
